Source: PMC6534212, “Synthesis and biological evaluation of 3–(4-aminophenyl)-coumarin derivatives as potential anti-Alzheimer’s disease agents” (Journal of Enzyme Inhibition and Medicinal Chemistry, 2019)
“Also recorded” adds a separate entry of the source.

What was measured:
[1] = biological target: T1, BuChE from equine serum (Equus caballus, UniProt P81908); experiment: biochemical; assay type: biochemical; conditions: for IC50: BuChE from equine serum, mean ± SD (n=3); for BuChE inhibitory activity (in words): verbal summary of Table 2, comparison with donepezil
T1 construct: Butyrylcholinesterase (BuChE, from equine serum, Aladdin, Shanghai, China); purchased Aladdin, Shanghai, China; host or cells: equine serum
Description: (§1) In the experiment, 0.05 mol/L phosphate buffered saline (PBS) of pH 8.0 was prepared first, and then the following solutions were prepared: 1.5 mmol/L Acetylthiocholine iodide (ATChI); 0.75 mmol/L 5, 5'-Dithiobis-(2-nitrobenzoic acid) (DTNB, Sigma Aldrich, St. Louis, MO); 0.2 U/mL Acetylcholinesterase (AChE, from […], Macklin); 0.5 U/mL Butyrylcholinesterase (BuChE, from equine serum, Aladdin, Shanghai, China); 1.5 mmol/L S-Butyrylthiocholine iodide (BTChI, Sigma Aldrich, St. Louis, MO). 4% sodium dodecyl sulphate (SDS) was prepared with secondary water. […] All solutions were stored in a refrigerator at 4 °C.
(§2) The AChE/BuChE inhibitory activity of the 3–(4-aminophenyl)-coumarin derivatives was determined by the method of Ellaman[28] with slight modifications. The experiment was divided into control group, sample blank group and sample group. Take a series of test tubes, the reagents were loaded in test tubes at the dose of Table 6. After incubation at 37 °C for 20 min, quickly add 1 mL of 4% SDS to stop the reaction. […] All experiments were run in triplicate. The absorbance was determined by UV spectrophotometer, and the inhibition rate of AChE and the IC50 value of each sample were calculated according to the formula. Inhibition rate % = {[(AC−AS)−ASB]/AC} ×100%, where AC (no sample added) is the absorbance of control group; AS is the absorbance of sample group; ASB (add sample solution but no substrate ATChI added) is the absorbance of sample blank group.
The method for determining BuChE is the same as the method for measuring AChE. The sample can be added with reference to Table 6, AChE is changed to BuChE, and the substrate ATChI is changed to substrate BTChI. The order of loading and the amount of loading are the same as Table 6. The absorbance was determined by UV spectrophotometer, and the inhibition rate of BuChE and the IC50 value of each sample were calculated according to the formula. The formula used is the same as AChE.

[2] = biological target: T2, AChE from Electrophorus electricus (Electrophorus electricus, UniProt O42275); experiment: biochemical; assay type: biochemical; conditions: for IC50: AChE from Electrophorus electricus, mean ± SD (n=3); for Selectivity AChE/BuChE (in words): verbal summary of SI; for AChE inhibitory activity (in words): verbal summary of Table 2
T2 construct: purchased Macklin
Description: as §1, §2

[3] = system: aluminium trichloride-induced zebrafish juveniles; experiment: Effects of compounds on aluminium trichloride-induced behavioural inhibition of zebrafish juveniles (Zebrobox); conditions: for Total movement distance: mean ± SE, n=8; for Effect on behavioural inhibition of zebrafish induced by aluminium trichloride (in words): compared with the model group
Description: The most suitable modelling concentrations were chosen, and then the effect of the compounds on the behaviour of the aluminium trichloride-induced zebrafish juveniles was explored.
The 72 hpf zebrafish were placed in a petri dish, and the normal developing juveniles were selected under a microscope in a 12-well plate. […] The continuous drug solution was exposed for 3 days. […] Each well was juvenile fish developed to 72 h post-exposure (hpe) and added 0.5 mL of culture water and 8 juveniles were set in each experimental group. The well plate was placed in the dark box of the zebrafish behaviour analysis system. The fish was first adapted to 10 min at the beginning of the experiment. The trajectories of the juveniles in each group were collected using zeblab software for 10 min, recorded every 5 min, and exported by software. Then calculate the total distance of each group of zebrafish juveniles.
The zebrafish with 72 hpf after fertilisation is placed in a petri dish. Under normal conditions, the normal developing juvenile fish are selected in a 12-well plate, and 15 juveniles per hole are set. Control group (0.5% DMSO), model group (5.0 mg/L AlCl3), 5.0 mg/L AlCl3 + test compound 5 μg/mL group, 5.0 mg/L AlCl3 + test compound 10 μg/mL group, 5.0 mg/L AlCl3 + test compound 50 μg/mL group, 5.0 mg/L AlCl3 + test compound 100 μg/mL group, three duplicate wells were set at each concentration. After the administration, the zebrafish was placed in a constant temperature incubator at 28 °C to continue the culture for 3 days. Changing the liquid (aquaculture water) every 24 h and removing dead young fish.

[4] = 5 mg/L compound + 5.0 mg/L AlCl3, 3 days
[5] = 10 mg/L compound + 5.0 mg/L AlCl3, 3 days
[6] = 50 mg/L compound + 5.0 mg/L AlCl3, 3 days
[7] = 100 mg/L compound + 5.0 mg/L AlCl3, 3 days

T2 sequence (O42275 24-633): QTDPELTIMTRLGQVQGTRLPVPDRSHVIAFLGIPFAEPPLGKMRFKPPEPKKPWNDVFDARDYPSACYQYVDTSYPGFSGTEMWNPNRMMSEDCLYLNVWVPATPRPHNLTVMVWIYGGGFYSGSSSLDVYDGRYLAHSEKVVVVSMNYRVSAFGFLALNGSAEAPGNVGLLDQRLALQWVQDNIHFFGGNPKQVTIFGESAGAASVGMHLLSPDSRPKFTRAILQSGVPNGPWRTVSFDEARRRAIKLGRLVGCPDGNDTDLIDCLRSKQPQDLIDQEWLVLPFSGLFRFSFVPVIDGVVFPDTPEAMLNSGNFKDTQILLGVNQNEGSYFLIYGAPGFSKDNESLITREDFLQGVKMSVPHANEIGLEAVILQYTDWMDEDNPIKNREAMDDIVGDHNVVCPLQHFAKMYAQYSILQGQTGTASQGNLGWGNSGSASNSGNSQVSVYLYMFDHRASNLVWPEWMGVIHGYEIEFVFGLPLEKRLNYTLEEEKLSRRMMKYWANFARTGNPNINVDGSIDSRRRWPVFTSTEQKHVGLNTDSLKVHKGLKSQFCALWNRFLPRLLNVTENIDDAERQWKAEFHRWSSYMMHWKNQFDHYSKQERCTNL
T1 sequence (P81908 whole entry): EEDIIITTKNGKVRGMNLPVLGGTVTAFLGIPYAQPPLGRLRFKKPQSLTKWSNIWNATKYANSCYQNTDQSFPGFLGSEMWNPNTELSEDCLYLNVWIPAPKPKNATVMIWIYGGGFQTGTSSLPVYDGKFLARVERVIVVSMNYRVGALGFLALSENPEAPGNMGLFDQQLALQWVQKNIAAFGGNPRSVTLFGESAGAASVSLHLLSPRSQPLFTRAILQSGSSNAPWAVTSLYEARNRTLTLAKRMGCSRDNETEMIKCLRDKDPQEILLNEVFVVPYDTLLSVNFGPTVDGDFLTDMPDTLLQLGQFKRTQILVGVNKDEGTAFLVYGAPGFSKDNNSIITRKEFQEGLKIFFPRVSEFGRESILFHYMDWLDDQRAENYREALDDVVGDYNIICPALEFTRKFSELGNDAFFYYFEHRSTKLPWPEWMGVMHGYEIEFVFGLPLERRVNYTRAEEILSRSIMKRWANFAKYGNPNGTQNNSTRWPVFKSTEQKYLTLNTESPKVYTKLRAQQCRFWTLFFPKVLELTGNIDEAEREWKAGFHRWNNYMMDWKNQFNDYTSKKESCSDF

O=C(Nc1ccc(-c2cc3ccc(O)cc3oc2=O)cc1)c1cccc(F)c1 [Compound 4a, 3-[4-(3-fluoro-benzoylamino)-phenyl]-7-hydroxy-coumarin]
IC50 [1]: 3.89 ± 0.955 µM | IC50 [2]: > 50 µM | Selectivity AChE/BuChE (in words) [2]: highly selective for BuChE | AChE inhibitory activity (in words) [2]: no inhibitory activity

O=C(Nc1ccc(-c2cc3ccc(O)cc3oc2=O)cc1)c1ccc(F)cc1 [Compound 4b, 3-[4-(4-fluoro-benzoylamino)-phenyl]-7-hydroxy-coumarin]
IC50 [1]: 2.44 ± 0.035 µM | BuChE inhibitory activity (in words) [1]: better than donepezil | IC50 [2]: > 50 µM | SI: selectivity index (IC50 BuChE/IC50 AChE) [2]: <0.050 | Selectivity AChE/BuChE (in words) [2]: highly selective for BuChE | AChE inhibitory activity (in words) [2]: no inhibitory activity

Cc1ccc(C(=O)Nc2ccc(-c3cc4ccc(O)cc4oc3=O)cc2)cc1 [Compound 4c, 3-[4-(4-methyl-benzoylamino)-phenyl]-7-hydroxy-coumarin]
IC50 [1]: 15.6 ± 1.82 µM | IC50 [2]: > 50 µM | AChE inhibitory activity (in words) [2]: no inhibitory activity

O=C(Nc1ccc(-c2cc3ccc(O)cc3oc2=O)cc1)c1ccc(CCl)cc1 [Compound 4d, 3-[4-(4-chloromethyl-benzoylamino)-phenyl]-7-hydroxy-coumarin]
IC50 [1]: 8.9 ± 1.18 µM | IC50 [2]: 47.2 ± 3.57 µM | SI: selectivity index (IC50 BuChE/IC50 AChE) [2]: 0.189

Cc1cccc(C(=O)Nc2ccc(-c3cc4ccc(O)cc4oc3=O)cc2)c1 [Compound 4e, 3-[4-(3-methyl-benzoylamino)-phenyl]-7-hydroxy-coumarin]
IC50 [1]: 10.6 ± 0.132 µM | IC50 [2]: > 50 µM | SI: selectivity index (IC50 BuChE/IC50 AChE) [2]: <0.211 | AChE inhibitory activity (in words) [2]: no inhibitory activity

O=C(Nc1ccc(-c2cc3ccc(O)cc3oc2=O)cc1)c1cccc(Cl)c1 [Compound 4f, 3-[4-(3-chloro-benzoylamino)-phenyl]-7-hydroxy-coumarin]
IC50 [1]: 2.56 ± 0.275 µM | BuChE inhibitory activity (in words) [1]: better than donepezil | IC50 [2]: 1.94 ± 0.141 µM | SI: selectivity index (IC50 BuChE/IC50 AChE) [2]: 1.319 | AChE inhibitory activity (in words) [2]: moderate to excellent AChE inhibitory activity | Total movement distance [3, 4]: 205.7 ± 4.5 cm | Total movement distance [3, 5]: 223.2 ± 16.4 cm | Total movement distance [3, 6]: 236 ± 11.5 cm | Total movement distance [3, 7]: 244.8 ± 13.6 cm | Effect on behavioural inhibition of zebrafish induced by aluminium trichloride (in words) [3]: certain therapeutic effects; also recorded: could alleviate the behavioural inhibition symptoms

O=C(Nc1ccc(-c2cc3ccc(O)cc3oc2=O)cc1)c1ccccc1F [Compound 4g, 3-[4-(2-fluoro-benzoylamino)-phenyl]-7-hydroxy-coumarin]
IC50 [1]: 24.5 ± 0.535 µM | IC50 [2]: > 50 µM | SI: selectivity index (IC50 BuChE/IC50 AChE) [2]: <0.489 | AChE inhibitory activity (in words) [2]: no inhibitory activity

O=C(Nc1ccc(-c2cc3ccc(O)cc3oc2=O)cc1)c1ccc(Cl)cc1 [Compound 4h, 3-[4-(4-chloro-benzoylamino)-phenyl]-7-hydroxy-coumarin]
IC50 [1]: 3.88 ± 0.191 µM | IC50 [2]: > 50 µM | SI: selectivity index (IC50 BuChE/IC50 AChE) [2]: <0.078 | Selectivity AChE/BuChE (in words) [2]: highly selective for BuChE | AChE inhibitory activity (in words) [2]: no inhibitory activity

Cc1cc(C)cc(C(=O)Nc2ccc(-c3cc4ccc(O)cc4oc3=O)cc2)c1 [Compound 4i, 3-[4-(3,5-dimethyl-benzoylamino)-phenyl]-7-hydroxy-coumarin]
IC50 [1]: 2.26 ± 0.225 µM | BuChE inhibitory activity (in words) [1]: better than donepezil | IC50 [2]: > 50 µM | SI: selectivity index (IC50 BuChE/IC50 AChE) [2]: <0.045 | Selectivity AChE/BuChE (in words) [2]: highly selective for BuChE | AChE inhibitory activity (in words) [2]: no inhibitory activity

COc1cccc2cc(-c3ccc(NC(=O)c4cccc(F)c4)cc3)c(=O)oc12 [Compound 4j, 3-[4-(3-fluoro-benzoylamino)-phenyl]-8-methoxy-coumarin]
IC50 [1]: 0.905 ± 0.081 µM | BuChE inhibitory activity (in words) [1]: better than donepezil | IC50 [2]: 4.16 ± 0.161 µM | SI: selectivity index (IC50 BuChE/IC50 AChE) [2]: 0.217 | AChE inhibitory activity (in words) [2]: moderate to excellent AChE inhibitory activity | Total movement distance [3, 4]: 208.8 ± 9.6 cm | Total movement distance [3, 5]: 226 ± 10.7 cm | Total movement distance [3, 6]: 231.8 ± 13.2 cm | Total movement distance [3, 7]: 225.7 ± 13.4 cm | Effect on behavioural inhibition of zebrafish induced by aluminium trichloride (in words) [3]: certain therapeutic effects; also recorded: could alleviate the behavioural inhibition symptoms

COc1cccc2cc(-c3ccc(NC(=O)c4ccc(F)cc4)cc3)c(=O)oc12 [Compound 4k, 3-[4-(4-fluoro-benzoylamino)-phenyl]-8-methoxy-coumarin]
IC50 [1]: 0.559 ± 0.017 µM | BuChE inhibitory activity relative to donepezil ([1]; more active than donepezil): 5 times | BuChE inhibitory activity (in words) [1]: better than donepezil | IC50 [2]: 28 ± 2.56 µM | SI: selectivity index (IC50 BuChE/IC50 AChE) [2]: 0.020 | Selectivity AChE/BuChE (in words) [2]: highly selective for BuChE | Total movement distance [3, 4]: 194.9 ± 5.5 cm | Total movement distance [3, 5]: 186.7 ± 7.7 cm | Total movement distance [3, 6]: 181.8 ± 6.9 cm | Total movement distance [3, 7]: 205.7 ± 9.5 cm

COc1cccc2cc(-c3ccc(NC(=O)c4cccc(Cl)c4)cc3)c(=O)oc12 [Compound 4n, 3-[4-(3-chloro-benzoylamino)-phenyl]-8-methoxy-coumarin]
IC50 [1]: 0.951 ± 0.159 µM | BuChE inhibitory activity (in words) [1]: better than donepezil | IC50 [2]: > 50 µM | SI: selectivity index (IC50 BuChE/IC50 AChE) [2]: <0.020

COc1cccc2cc(-c3ccc(NC(=O)c4cccc(C)c4)cc3)c(=O)oc12 [Compound 4o, 3-[4-(3-methyl-benzoylamino)-phenyl]-8-methoxy-coumarin]
IC50 [1]: > 50 µM | IC50 [2]: 8.26 ± 0.581 µM | SI: selectivity index (IC50 BuChE/IC50 AChE) [2]: >6.054 | Selectivity AChE/BuChE (in words) [2]: highly selective for AChE | AChE inhibitory activity (in words) [2]: moderate to excellent AChE inhibitory activity

COc1cccc2cc(-c3ccc(NC(=O)c4ccccc4F)cc3)c(=O)oc12 [Compound 4p, 3-[4-(2-fluoro-benzoylamino)-phenyl]-8-methoxy-coumarin]
IC50 [1]: 16 ± 0.475 µM | IC50 [2]: 48.9 ± 2.32 µM | SI: selectivity index (IC50 BuChE/IC50 AChE) [2]: 0.326

COc1ccccc1C(=O)Nc1ccc(-c2cc3cccc(OC)c3oc2=O)cc1 [Compound 4q, 3-[4-(2-methoxy-benzoylamino)-phenyl]-8-methoxy-coumarin]
IC50 [1]: > 50 µM | IC50 [2]: 48.2 ± 3.13 µM | SI: selectivity index (IC50 BuChE/IC50 AChE) [2]: >1.037

O=C(Nc1ccc(-c2cc3ccc(O)c(O)c3oc2=O)cc1)c1ccc(CCl)cc1 [Compound 4s, 3-[4-(4-Chloromethyl-benzoylamino)-phenyl]-7,8-dihydroxy-coumarin]
IC50 [1]: > 50 µM | IC50 [2]: 48.2 ± 2.69 µM | SI: selectivity index (IC50 BuChE/IC50 AChE) [2]: >1.037

COc1cccc2cc(-c3ccc(NC(=O)c4ccco4)cc3)c(=O)oc12 [Compound 5b, 3-[4-(furan-2-formylamino)-phenyl]-8-methoxy-coumarin]
IC50 [1]: 4.62 ± 0.055 µM | IC50 [2]: 47.1 ± 1.59 µM | SI: selectivity index (IC50 BuChE/IC50 AChE) [2]: 0.098

O=C(Nc1ccc(-c2cc3ccc(O)cc3oc2=O)cc1)c1cccc2ccccc12 [Compound 6a, 3-[4-(1-naphthoylamino)-phenyl]-7-hydroxy-coumarin]
IC50 [1]: > 50 µM | IC50 [2]: 19.1 ± 0.981 µM | SI: selectivity index (IC50 BuChE/IC50 AChE) [2]: >2.612

COc1cccc2cc(-c3ccc(NC(=O)c4cccc5ccccc45)cc3)c(=O)oc12 [Compound 6b, 3-[4-(1-naphthoylamino)-phenyl]-8-methoxy-coumarin]
IC50 [1]: > 50 µM | IC50 [2]: > 50 µM

O=C(Nc1ccc(-c2cc3ccc(O)cc3oc2=O)cc1)c1ccc2ccccc2c1 [Compound 7a, 3-[4-(2-naphthoylamino)-phenyl]-7-hydroxy-coumarin]
IC50 [1]: 2.07 ± 0.045 µM | BuChE inhibitory activity (in words) [1]: better than donepezil | IC50 [2]: > 50 µM

COc1cccc2cc(-c3ccc(NC(=O)c4ccc(Cl)nc4)cc3)c(=O)oc12 [Compound 7c, 3-[4-(6-chloro-N-nicotinamide)-phenyl]-8-methoxy-coumarin]
IC50 [1]: 3.38 ± 0.342 µM | IC50 [2]: 19.2 ± 1.64 µM | SI: selectivity index (IC50 BuChE/IC50 AChE) [2]: 0.176
